Converted amounts (≈) assume the structure as drawn. Read-outs that look alike come from different tables or passages of the source.

In US20160168118A1, “N-(5-QUINOLIN-6-YL)PYRIDIN-3-YL) BENZSULFAMIDE DERIVATIVES, PREPARATION METHOD AND THERAPEUTIC USE THEREOF” (SECOND MILITARY MEDICAL UNIVERSITY, PLA, priority 2012, published 2016) one finds GI50, IC50 and solubility data, which are given here for one compound.

For data set [1], the system named is SF539. Put plainly: NCI cytotoxicity test, SF539. The format is cell-based. The note with it: Homo sapiens, SF-539. From the text: (§1) Cytotoxicity Test of Compound 9, 10 and 17 on 60 Kinds of Human Cancer Cell Lines from the US National Cancer Institute
Data set [2] concerns COLO205. Description: NCI cytotoxicity test, COLO205. The format is cell-based. Conditions: Homo sapiens, COLO 205.
Excerpt: as §1

The subject of data set [3] is U87MG (human brain star glioblastoma). Put plainly: MTT assay, U87MG. In kind it is cell-based. Conditions: U-87 MG, 72 h. In short, it runs like this: (§2)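 Cells seeded at 4~5×10^4 cells/ml in DMEM with 5-10% FBS, treated after 24 h for 72 h at 37° C, 5% CO2, in duplicate wells. MTT (5 mg/ml) added for 4 h, formazan dissolved and OD read at 570 nm.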
Data set [4] deals with PC3. Put plainly: NCI cytotoxicity test, PC3. In kind it is cell-based. Conditions: Homo sapiens, PC-3.
Excerpt: as §1

The target of data set [5] is PI3Kα (Homo sapiens, UniProt P42336). Description: Kinase-Glo Luminescent Kinase Assay, PI3Kα. In kind it is biochemical. Background: In Kinase-Glo more light means more ATP remaining.
Data set [6] concerns 60 kinds of human cancer cell lines. Put plainly: Cytotoxicity test on 60 kinds of human cancer cell lines from the US National Cancer Institute. The format is cell-based.
Excerpt: as §1

The subject of data set [7] is A549 (human lung cancer cells). Put plainly: MTT assay, A549. In kind it is cell-based. Conditions: 72 h. In short, it runs like this:
as §2

The test system of data set [8] is HCT116 (human colon cancer cells). Put plainly: MTT assay, HCT116. The format is cell-based. Conditions: HCT-116, 72 h. On the technique in general: Tetrazolium dyes change colour on reduction, which living cells bring about.
Data set [9] addresses mTOR (Homo sapiens, UniProt P42345). Put plainly: Lance Ultra Assay, mTOR. The format is biochemical.
The subject of data set [10] is SN12C. Put plainly: NCI cytotoxicity test, SN12C. The format is cell-based. The note with it: Homo sapiens.
Excerpt: as §1

A short description of data set [11]: Solubility test in buffer solution at pH=1. The note with it: pH=1 buffer solution, simulated gastric fluid, thermodynamic from solid; buffer solution pH=1. In kind it is physicochemical. The protocol:
Compound 9 1.02 mg was precisely weighed and placed in 1.5 mL of EP tube, and 10 uL pH=1 buffer solution was added, vortexed for 30S and ultrasonic for 20 min. There was a lot of visible turbidity after that.
20 uL buffer was added and ultrasounded and the solution was found still turbid. Turbidity reduced after the solution was diluted to 1 mL and vortexed, while there still exist residual after diluted to 2 mL.

Data set [12] concerns OVCAR3. Put plainly: NCI cytotoxicity test, OVCAR3. In kind it is cell-based. Conditions: Homo sapiens, OVCAR-3.
Excerpt: as §1

Data set [13] deals with PI3Kγ (Homo sapiens, UniProt P48736). Description: ADP-Glo Luminescent Kinase Assay, PI3Kγ. The format is biochemical. The note with it: read-out: IC50 on PI3K gamma. For orientation: ADP-Glo first removes unused ATP, then detects ADP through luciferase.
The subject of data set [14] is MCF7. Put plainly: NCI cytotoxicity test, MCF7. In kind it is cell-based. Conditions: Homo sapiens.
Excerpt: as §1

Data set [15] addresses PI3Kβ (Homo sapiens, UniProt P42338). Put plainly: ADP-Glo Luminescent Kinase Assay, PI3Kβ. In kind it is biochemical. Conditions: read-out: IC50 on PI3K beta.
Data set [16] deals with A549. Description: NCI cytotoxicity test, A549. The format is cell-based. Conditions: Homo sapiens.
Excerpt: as §1

Sequence of PI3Kα (P42336 whole entry, species assumed): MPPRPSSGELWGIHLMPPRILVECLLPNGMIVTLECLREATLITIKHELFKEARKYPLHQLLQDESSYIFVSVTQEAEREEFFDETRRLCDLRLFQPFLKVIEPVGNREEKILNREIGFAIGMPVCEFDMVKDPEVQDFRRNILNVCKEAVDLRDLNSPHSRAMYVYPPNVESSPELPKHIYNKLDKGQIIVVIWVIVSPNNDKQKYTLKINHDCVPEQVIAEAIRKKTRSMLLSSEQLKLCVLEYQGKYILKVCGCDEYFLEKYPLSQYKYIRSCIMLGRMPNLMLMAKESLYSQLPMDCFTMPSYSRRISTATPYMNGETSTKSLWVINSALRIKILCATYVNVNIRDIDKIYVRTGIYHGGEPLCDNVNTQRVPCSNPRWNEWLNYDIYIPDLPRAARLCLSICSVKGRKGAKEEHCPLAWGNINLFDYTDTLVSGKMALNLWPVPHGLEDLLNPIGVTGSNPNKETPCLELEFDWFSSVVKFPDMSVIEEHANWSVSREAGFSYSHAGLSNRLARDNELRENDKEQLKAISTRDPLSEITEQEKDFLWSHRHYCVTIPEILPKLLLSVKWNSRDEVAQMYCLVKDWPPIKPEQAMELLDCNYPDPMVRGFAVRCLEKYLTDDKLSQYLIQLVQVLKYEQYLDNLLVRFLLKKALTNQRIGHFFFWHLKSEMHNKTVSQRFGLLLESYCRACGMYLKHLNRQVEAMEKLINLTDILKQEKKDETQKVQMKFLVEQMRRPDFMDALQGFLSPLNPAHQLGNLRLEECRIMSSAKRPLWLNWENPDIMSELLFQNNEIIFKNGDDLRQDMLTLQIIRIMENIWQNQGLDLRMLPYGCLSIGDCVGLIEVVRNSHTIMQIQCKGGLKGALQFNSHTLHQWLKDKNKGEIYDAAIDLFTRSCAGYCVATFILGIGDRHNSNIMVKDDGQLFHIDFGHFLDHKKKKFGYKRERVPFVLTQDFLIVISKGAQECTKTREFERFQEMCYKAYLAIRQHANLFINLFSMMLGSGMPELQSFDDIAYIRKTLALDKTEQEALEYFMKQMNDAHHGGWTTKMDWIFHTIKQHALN
Sequence of PI3Kα (P27986 whole entry partner, species assumed): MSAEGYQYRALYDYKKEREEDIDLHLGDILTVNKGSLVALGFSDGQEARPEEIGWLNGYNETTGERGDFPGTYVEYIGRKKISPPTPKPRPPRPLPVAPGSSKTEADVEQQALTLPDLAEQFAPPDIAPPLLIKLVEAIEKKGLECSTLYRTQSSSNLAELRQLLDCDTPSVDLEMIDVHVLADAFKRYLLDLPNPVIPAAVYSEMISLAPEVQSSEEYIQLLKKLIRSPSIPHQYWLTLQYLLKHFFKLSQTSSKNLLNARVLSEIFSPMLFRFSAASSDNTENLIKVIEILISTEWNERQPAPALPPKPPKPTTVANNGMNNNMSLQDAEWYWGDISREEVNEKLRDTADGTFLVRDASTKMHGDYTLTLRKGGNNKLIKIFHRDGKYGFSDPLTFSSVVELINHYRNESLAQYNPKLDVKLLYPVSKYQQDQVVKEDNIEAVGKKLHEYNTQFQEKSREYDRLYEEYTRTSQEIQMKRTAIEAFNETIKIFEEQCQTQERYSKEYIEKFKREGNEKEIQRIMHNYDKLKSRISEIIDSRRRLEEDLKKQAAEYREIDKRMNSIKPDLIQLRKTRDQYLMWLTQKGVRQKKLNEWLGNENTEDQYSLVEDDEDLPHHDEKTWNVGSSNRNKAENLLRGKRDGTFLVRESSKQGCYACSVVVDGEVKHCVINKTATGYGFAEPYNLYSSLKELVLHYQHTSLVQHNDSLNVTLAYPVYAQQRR
Sequence of PI3Kγ (P48736 whole entry, species assumed): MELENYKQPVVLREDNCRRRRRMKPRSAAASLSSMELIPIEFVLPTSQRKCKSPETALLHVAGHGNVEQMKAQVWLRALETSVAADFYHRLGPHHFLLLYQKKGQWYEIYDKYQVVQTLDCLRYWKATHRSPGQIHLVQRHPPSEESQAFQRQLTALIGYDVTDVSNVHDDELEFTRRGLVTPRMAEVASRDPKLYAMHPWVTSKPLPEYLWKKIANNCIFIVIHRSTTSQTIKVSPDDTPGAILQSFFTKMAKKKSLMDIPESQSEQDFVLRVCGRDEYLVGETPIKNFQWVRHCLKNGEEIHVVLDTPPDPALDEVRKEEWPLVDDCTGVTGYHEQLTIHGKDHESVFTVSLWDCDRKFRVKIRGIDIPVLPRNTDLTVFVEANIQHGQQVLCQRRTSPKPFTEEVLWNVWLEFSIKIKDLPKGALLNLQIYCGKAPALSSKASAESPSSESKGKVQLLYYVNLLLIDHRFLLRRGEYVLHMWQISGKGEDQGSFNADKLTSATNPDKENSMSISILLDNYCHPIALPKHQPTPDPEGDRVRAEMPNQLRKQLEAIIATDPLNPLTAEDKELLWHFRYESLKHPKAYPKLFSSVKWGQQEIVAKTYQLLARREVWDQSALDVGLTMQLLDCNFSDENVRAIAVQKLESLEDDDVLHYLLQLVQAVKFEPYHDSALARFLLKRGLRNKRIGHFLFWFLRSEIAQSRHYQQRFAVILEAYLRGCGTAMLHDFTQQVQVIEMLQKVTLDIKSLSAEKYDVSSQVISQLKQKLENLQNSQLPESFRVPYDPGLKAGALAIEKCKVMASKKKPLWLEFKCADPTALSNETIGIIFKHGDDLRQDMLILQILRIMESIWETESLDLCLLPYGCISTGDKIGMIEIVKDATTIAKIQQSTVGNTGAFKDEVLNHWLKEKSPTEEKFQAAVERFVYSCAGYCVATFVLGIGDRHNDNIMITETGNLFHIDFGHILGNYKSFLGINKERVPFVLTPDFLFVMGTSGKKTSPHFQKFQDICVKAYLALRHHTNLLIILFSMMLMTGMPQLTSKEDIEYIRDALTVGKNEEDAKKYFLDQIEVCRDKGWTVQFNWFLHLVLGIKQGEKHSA
Sequence of PI3Kβ (P42338 whole entry, species assumed): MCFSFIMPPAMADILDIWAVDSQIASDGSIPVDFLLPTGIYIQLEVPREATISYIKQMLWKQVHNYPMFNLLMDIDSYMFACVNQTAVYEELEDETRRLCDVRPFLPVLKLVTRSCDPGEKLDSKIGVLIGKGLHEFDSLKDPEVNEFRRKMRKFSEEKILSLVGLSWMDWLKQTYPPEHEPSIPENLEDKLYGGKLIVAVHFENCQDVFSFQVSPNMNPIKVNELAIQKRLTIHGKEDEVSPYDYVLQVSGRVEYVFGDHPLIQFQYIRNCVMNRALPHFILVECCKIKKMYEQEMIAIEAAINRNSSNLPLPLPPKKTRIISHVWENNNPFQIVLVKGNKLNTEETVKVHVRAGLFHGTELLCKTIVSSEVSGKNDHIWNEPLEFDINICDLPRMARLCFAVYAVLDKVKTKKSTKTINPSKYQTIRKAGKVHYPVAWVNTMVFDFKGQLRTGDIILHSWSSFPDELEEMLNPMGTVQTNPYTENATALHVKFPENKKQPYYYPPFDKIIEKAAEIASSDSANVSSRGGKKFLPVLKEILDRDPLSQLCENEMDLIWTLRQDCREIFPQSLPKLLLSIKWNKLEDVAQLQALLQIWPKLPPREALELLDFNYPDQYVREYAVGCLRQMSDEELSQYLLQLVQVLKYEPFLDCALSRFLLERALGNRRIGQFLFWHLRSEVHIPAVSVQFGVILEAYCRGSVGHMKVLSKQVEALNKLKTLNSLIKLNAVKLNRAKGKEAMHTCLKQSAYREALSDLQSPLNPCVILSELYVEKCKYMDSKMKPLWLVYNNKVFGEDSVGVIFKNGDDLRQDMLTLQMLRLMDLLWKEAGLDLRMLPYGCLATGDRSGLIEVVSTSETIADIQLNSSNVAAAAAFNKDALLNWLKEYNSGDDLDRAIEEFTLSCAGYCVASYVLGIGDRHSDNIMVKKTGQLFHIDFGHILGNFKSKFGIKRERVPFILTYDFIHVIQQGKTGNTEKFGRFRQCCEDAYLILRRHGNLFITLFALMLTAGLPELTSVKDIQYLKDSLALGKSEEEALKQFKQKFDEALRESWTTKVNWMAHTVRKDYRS
Sequence of PI3Kβ (P27986 whole entry partner, species assumed): as the sequence (P27986 whole entry partner, species assumed) above

The term IC50 denotes the concentration that inhibits the measured activity by half. Usually solubility stands for the concentration that dissolves in the medium under given conditions. Low values mean a poorly soluble substance, high ones a readily soluble substance. For `COc1ncc(-c2ccc3nccc(-c4ccc(CN(C)C)cc4)c3c2)cc1NS(=O)(=O)c1ccc(F)cc1F` [Compound 9, N-(5-(4-(4-((dimethylamine)methyl)phenyl)quinolin-6-yl)-2-methoxypyridine-3-yl)-2,4-difluorobenzenesulfonamide], the GI50 in data set [1] was 0.017 µM; in [2], 0.0135 µM; in [4], below 0.01 µM; in data set [6] (on the 35 tumor cell lines, read-out: average half growth inhibitory concentration (GI50)), below 0.01 µM; in [6] (on the 60 kinds of tumor cells, read-out: Average GI50) it was 0.0186 µM; in data set [10], below 0.01 µM. Also, the GI50 in data set [12], in [14] and in data set [16] was below 0.01 µM each time. Further, the IC50 was determined as 51 ng/mL (≈ 0.091 µM) in data set [3]; 0.0013 µM in data set [5]; 2.47 ng/mL (≈ 0.00441 µM) in data set [7]; 1.69 ng/mL (≈ 0.00301 µM) in [8]; 0.0038 µM in [9]; 0.0015 µM in data set [13]. Besides, the IC50 in [15] came to 0.0018 µM. This compound yielded a solubility at 20 min in [11] of 33.3 mg/mL (≈ 59400 µM).
